Measured values reported in the NIST ThermoML archive (doi:10.1021/je500772z).

Assay: osmotic coefficient (dimensionless); mn = molality of the nth substance listed, in mol/kg
Conditions: 298.15 K, Liquid, isopiestic method

CC(C)C[C@H](N)C(=O)[O-].CCCCn1cc[n+](C)c1 [1-butyl-3-methylimidazolium L-leucinate] + O
Conditions | osmotic coefficient
m1 = 0 | 1
m1 = 0.0117 | 0.9528
m1 = 0.0184 | 0.9362
m1 = 0.0387 | 0.9254
m1 = 0.0649 | 0.9104
m1 = 0.0795 | 0.9093
m1 = 0.1123 | 0.9025
m1 = 0.1532 | 0.8977
m1 = 0.1914 | 0.8982
m1 = 0.2319 | 0.9005
m1 = 0.2687 | 0.9029
m1 = 0.3111 | 0.9101
m1 = 0.3711 | 0.9187
m1 = 0.4373 | 0.9255
m1 = 0.4915 | 0.9328
m1 = 0.5503 | 0.9423

CC(C)[C@H](N)C(=O)[O-].CCCCn1cc[n+](C)c1 [1-butyl-3-methylimidazolium L-valinate] + O
Conditions | osmotic coefficient
m1 = 0 | 1
m1 = 0.013 | 0.9595
m1 = 0.0202 | 0.9384
m1 = 0.0421 | 0.923
m1 = 0.0582 | 0.9121
m1 = 0.0723 | 0.9019
m1 = 0.1086 | 0.8899
m1 = 0.1458 | 0.8851
m1 = 0.1932 | 0.8794
m1 = 0.2434 | 0.8759
m1 = 0.2848 | 0.879
m1 = 0.3283 | 0.8828
m1 = 0.4013 | 0.8908
m1 = 0.4421 | 0.8986
m1 = 0.5035 | 0.9098
m1 = 0.576 | 0.9279

CCCCn1cc[n+](C)c1.NCC(=O)[O-] [1-butyl-3-methylimidazolium glycinate] + O
Conditions | osmotic coefficient
m1 = 0 | 1
m1 = 0.0179 | 0.941
m1 = 0.0266 | 0.9408
m1 = 0.0509 | 0.9167
m1 = 0.0737 | 0.9076
m1 = 0.0978 | 0.8916
m1 = 0.1314 | 0.8739
m1 = 0.1811 | 0.8658
m1 = 0.2166 | 0.853
m1 = 0.263 | 0.8465
m1 = 0.3181 | 0.8432
m1 = 0.3693 | 0.8407
m1 = 0.4305 | 0.8405
m1 = 0.5055 | 0.8474
m1 = 0.5791 | 0.8523
m1 = 0.6439 | 0.8526

CCCCn1cc[n+](C)c1.C[C@H](N)C(=O)[O-] [3-butyl-1-methyl-1H-imidazolium L-alaninate] + O
Conditions | osmotic coefficient
m1 = 0 | 1
m1 = 0.0134 | 0.9617
m1 = 0.0183 | 0.9405
m1 = 0.0416 | 0.9262
m1 = 0.0612 | 0.9103
m1 = 0.0821 | 0.9008
m1 = 0.109 | 0.8865
m1 = 0.1518 | 0.8725
m1 = 0.1962 | 0.8661
m1 = 0.242 | 0.8654
m1 = 0.2834 | 0.863
m1 = 0.3192 | 0.8594
m1 = 0.3741 | 0.8633
m1 = 0.4453 | 0.8672
m1 = 0.5047 | 0.8715
m1 = 0.5755 | 0.8812
